{"source": "patent US20250346616A1", "about": "(DIZAL (JIANGSU) PHARMACEUTICAL CO., LTD., priority 2022, published 2025)", "key": {"Recombinant ROCK2": {"biological_target": "Recombinant ROCK2 (Homo sapiens (Human), UniProt O75116)", "sequence (O75116 whole entry)": "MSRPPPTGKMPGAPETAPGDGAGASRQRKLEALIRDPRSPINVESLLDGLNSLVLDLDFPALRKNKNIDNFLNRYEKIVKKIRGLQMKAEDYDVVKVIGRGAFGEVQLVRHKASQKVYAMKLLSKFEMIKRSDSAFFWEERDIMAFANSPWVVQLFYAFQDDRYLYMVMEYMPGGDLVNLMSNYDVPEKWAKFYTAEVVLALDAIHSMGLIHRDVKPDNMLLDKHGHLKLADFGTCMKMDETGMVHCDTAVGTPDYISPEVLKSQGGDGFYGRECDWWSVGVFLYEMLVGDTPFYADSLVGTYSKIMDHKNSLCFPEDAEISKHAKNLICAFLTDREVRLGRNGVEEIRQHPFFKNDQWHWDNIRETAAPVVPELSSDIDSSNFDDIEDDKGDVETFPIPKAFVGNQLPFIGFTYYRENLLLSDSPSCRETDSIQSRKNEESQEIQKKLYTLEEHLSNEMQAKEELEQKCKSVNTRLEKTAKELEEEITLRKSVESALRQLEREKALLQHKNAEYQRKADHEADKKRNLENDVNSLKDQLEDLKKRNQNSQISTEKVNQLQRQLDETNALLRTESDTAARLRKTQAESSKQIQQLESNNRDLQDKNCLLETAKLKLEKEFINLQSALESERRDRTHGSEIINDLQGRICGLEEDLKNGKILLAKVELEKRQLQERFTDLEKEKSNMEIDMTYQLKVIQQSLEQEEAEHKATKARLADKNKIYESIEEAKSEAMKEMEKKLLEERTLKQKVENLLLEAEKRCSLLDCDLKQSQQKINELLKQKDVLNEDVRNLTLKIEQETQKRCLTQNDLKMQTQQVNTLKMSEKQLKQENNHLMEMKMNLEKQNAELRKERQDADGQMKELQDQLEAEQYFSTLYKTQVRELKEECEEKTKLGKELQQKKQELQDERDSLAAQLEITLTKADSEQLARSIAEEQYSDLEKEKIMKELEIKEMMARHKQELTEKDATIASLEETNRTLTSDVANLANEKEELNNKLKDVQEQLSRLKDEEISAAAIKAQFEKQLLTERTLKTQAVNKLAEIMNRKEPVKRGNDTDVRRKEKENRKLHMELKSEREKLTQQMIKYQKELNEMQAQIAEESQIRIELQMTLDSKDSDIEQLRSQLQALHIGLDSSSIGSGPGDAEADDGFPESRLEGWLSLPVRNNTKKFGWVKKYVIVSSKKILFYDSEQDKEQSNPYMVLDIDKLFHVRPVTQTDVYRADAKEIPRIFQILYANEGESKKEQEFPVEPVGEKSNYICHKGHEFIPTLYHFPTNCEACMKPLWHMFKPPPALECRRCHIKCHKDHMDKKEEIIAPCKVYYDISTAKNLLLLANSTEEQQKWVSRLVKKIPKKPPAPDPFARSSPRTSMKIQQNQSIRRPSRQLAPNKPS", "assay": "Lance Ultra Kinase Assay, ROCK2 inhibition", "type": "biochemical", "settings": "ATP at Km, 30 min pre-incubation, 1 h reaction", "procedure": "(§1) The inhibition potency of compounds against these enzymes was assessed using Lance Ultra Kinase Assay. In brief, recombinant kinases were pre-incubated in the presence or absence of compound at room temperature for 30 minutes. The reaction was initiated by the addition of the ATP (Km) and substrate peptide which could be phosphorylated by kinases in the reaction. After 1 h incubation, the reaction was stopped by the addition of the detection reagent mix containing EDTA. The fluorescence was measured at 615 nm and 665 nm, respectively with excitation wavelength at 320 nm. The calculated signal ratio of 665 nm/615 nm is proportional to the kinase activity."}, "Recombinant ROCK1": {"biological_target": "Recombinant ROCK1 (Homo sapiens (Human), UniProt Q13464)", "sequence (Q13464 whole entry)": "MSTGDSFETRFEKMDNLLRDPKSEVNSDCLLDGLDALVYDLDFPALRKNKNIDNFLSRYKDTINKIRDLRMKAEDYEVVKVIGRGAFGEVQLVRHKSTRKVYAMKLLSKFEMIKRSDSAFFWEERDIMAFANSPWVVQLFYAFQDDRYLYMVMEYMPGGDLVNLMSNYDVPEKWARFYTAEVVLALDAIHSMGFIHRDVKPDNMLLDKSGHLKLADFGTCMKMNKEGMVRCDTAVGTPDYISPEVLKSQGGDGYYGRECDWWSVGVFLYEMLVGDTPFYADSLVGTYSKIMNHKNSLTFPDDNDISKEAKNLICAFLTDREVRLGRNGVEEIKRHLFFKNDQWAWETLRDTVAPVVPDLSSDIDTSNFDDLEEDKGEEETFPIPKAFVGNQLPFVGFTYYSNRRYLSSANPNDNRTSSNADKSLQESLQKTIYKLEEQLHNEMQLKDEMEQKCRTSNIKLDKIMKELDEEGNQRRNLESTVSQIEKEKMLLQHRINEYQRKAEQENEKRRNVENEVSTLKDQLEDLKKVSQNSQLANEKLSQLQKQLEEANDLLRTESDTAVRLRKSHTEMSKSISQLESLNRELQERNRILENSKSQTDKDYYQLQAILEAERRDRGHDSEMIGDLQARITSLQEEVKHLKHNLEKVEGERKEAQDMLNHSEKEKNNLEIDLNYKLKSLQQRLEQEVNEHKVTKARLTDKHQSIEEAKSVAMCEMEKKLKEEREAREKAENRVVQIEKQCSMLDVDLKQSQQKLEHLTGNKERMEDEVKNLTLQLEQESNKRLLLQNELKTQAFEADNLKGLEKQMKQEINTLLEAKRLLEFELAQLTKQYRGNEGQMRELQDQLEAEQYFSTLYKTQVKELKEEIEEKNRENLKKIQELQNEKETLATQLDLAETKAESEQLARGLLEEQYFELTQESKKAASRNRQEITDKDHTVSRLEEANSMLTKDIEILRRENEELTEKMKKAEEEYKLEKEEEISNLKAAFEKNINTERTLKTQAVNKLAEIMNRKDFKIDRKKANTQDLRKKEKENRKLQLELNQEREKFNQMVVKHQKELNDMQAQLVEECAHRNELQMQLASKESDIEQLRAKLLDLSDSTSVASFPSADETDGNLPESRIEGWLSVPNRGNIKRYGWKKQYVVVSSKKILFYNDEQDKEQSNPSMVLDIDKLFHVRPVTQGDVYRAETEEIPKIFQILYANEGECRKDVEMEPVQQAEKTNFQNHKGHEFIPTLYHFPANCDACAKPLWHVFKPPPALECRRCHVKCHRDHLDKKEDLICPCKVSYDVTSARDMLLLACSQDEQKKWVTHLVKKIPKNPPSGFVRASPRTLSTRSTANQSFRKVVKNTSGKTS", "assay": "Lance Ultra Kinase Assay, ROCK1 inhibition", "type": "biochemical", "settings": "ATP at Km, 30 min pre-incubation, 1 h reaction", "procedure": "as §1"}}}
{"smiles": "COc1cccc(C(NC(=O)c2cccc3c(-c4cn[nH]c4)c[nH]c23)C2CCN(C)CC2)c1", "note": "(single isomer, unassigned) [Example 142, N-((3-methoxyphenyl) (1-methylpiperidin-4-yl)methyl)-3-(1H-pyrazol-4-yl)-1H-indole-7-carboxamide]", "values": [{"measurement": "IC50", "setting": "Recombinant ROCK2", "result": 37, "unit": "nM"}, {"measurement": "IC50", "setting": "Recombinant ROCK1", "result": 113, "unit": "nM"}]}
{"smiles": "NC[C@@H](Cc1ccccc1)C(=O)Nc1cccc2c(-c3cn[nH]c3)c[nH]c12", "note": "[Example 53, (2R)-3-amino-2-benzyl-N-[3-(1H-pyrazol-4-yl)-1H-indol-7-yl]propanamide]", "values": [{"measurement": "IC50", "setting": "Recombinant ROCK2", "result": 4.1, "unit": "nM"}, {"measurement": "IC50", "setting": "Recombinant ROCK1", "result": 5.8, "unit": "nM"}]}
{"smiles": "CNC(=O)OCc1cccc(C(CN)C(=O)Nc2cccc3c(-c4cn[nH]c4)c[nH]c23)c1", "note": "(single isomer, unassigned) [Example 50, 3-(1-((3-(1H-pyrazol-4-yl)-1H-indol-7-yl)amino)-3-amino-1-oxopropan-2-yl)benzyl methylcarbamate]", "values": [{"measurement": "IC50", "setting": "Recombinant ROCK2", "result": 0.22, "unit": "nM"}, {"measurement": "IC50", "setting": "Recombinant ROCK1", "result": 0.32, "unit": "nM"}]}
{"smiles": "NCc1cccc(C(CN)C(=O)Nc2cccc3c(-c4cn[nH]c4)c[nH]c23)c1", "note": "(racemic) [Example 76, 3-amino-2-[3-(aminomethyl)phenyl]-N-[3-(1H-pyrazol-4-yl)-1H-indol-7-yl]propanamide]", "values": [{"measurement": "IC50", "setting": "Recombinant ROCK2", "result": 7.9, "unit": "nM"}, {"measurement": "IC50", "setting": "Recombinant ROCK1", "result": 14, "unit": "nM"}]}
{"smiles": "CNC(=O)OCc1cccc(C(CN)C(=O)Nc2cccc3c(-c4cn[nH]c4)c[nH]c23)c1", "note": "(single isomer, unassigned) [Example 51, 3-(1-((3-(1H-pyrazol-4-yl)-1H-indol-7-yl)amino)-3-amino-1-oxopropan-2-yl)benzyl methylcarbamate]", "values": [{"measurement": "IC50", "setting": "Recombinant ROCK2", "result": 22, "unit": "nM"}, {"measurement": "IC50", "setting": "Recombinant ROCK1", "result": 33, "unit": "nM"}]}
{"smiles": "CN1CCN(CC(C(=O)Nc2cccc3c(-c4cn[nH]c4)c[nH]c23)c2cccnc2)CC1", "note": "(single isomer, unassigned) [Example 67, N-(3-(1H-pyrazol-4-yl)-1H-indol-7-yl)-3-(4-methylpiperazin-1-yl)-2-(pyridin-3-yl)propanamide]", "values": [{"measurement": "IC50", "setting": "Recombinant ROCK2", "result": 1.6, "unit": "nM"}, {"measurement": "IC50", "setting": "Recombinant ROCK1", "result": 2.6, "unit": "nM"}]}
{"smiles": "NCC(C(=O)Nc1cccc2c(-c3cn[nH]c3)c[nH]c12)C1CCCCC1", "note": "(single isomer, unassigned) [Example 24, N-(3-(1H-pyrazol-4-yl)-1H-indol-7-yl)-3-amino-2-cyclohexylpropanamide]", "values": [{"measurement": "IC50", "setting": "Recombinant ROCK2", "result": 3, "unit": "nM"}, {"measurement": "IC50", "setting": "Recombinant ROCK1", "result": 4, "unit": "nM"}]}
{"smiles": "NCCC(NC(=O)c1cccc2c(-c3cn[nH]c3)c[nH]c12)c1ccccc1", "note": "(racemic) [Example 140, N-(3-amino-1-phenylpropyl)-3-(1H-pyrazol-4-yl)-1H-indole-7-carboxamide]", "values": [{"measurement": "IC50", "setting": "Recombinant ROCK2", "result": 0.86, "unit": "nM"}, {"measurement": "IC50", "setting": "Recombinant ROCK1", "result": 2.8, "unit": "nM"}]}
{"smiles": "NCC(C(=O)Nc1cccc2c(-c3cn[nH]c3)c[nH]c12)c1ccc(O)cc1", "note": "(racemic) [Example 79, N-(3-(1H-pyrazol-4-yl)-1H-indol-7-yl)-3-amino-2-(4-hydroxyphenyl)-propanamide]", "values": [{"measurement": "IC50", "setting": "Recombinant ROCK2", "result": 1.7, "unit": "nM"}, {"measurement": "IC50", "setting": "Recombinant ROCK1", "result": 2.9, "unit": "nM"}]}
{"smiles": "CN1CCN(C[C@@H](C(=O)Nc2cccc3c(-c4cn[nH]c4)c[nH]c23)c2ccccc2)CC1", "note": "[Example 40]", "values": [{"measurement": "IC50", "setting": "Recombinant ROCK2", "result": 0.18, "unit": "nM"}, {"measurement": "IC50", "setting": "Recombinant ROCK1", "result": 0.33, "unit": "nM"}]}
{"smiles": "COCCOc1ccc(C(CN)C(=O)Nc2cccc3c(-c4cn[nH]c4)c[nH]c23)cc1", "note": "(racemic) [Example 88, 3-amino-2-[4-(2-methoxyethoxy)phenyl]-N-[3-(1H-pyrazol-4-yl)-1H-indol-7-yl]propanamide]", "values": [{"measurement": "IC50", "setting": "Recombinant ROCK2", "result": 9.3, "unit": "nM"}, {"measurement": "IC50", "setting": "Recombinant ROCK1", "result": 17, "unit": "nM"}]}
{"smiles": "COc1cccc(C(CN)C(=O)Nc2cccc3c(-c4cn[nH]c4)c[nH]c23)c1", "note": "(single isomer, unassigned) [Example 17, N-(3-(1H-pyrazol-4-yl)-1H-indol-7-yl)-3-amino-2-(3-methoxyphenyl)propanamide]", "values": [{"measurement": "IC50", "setting": "Recombinant ROCK2", "result": 15, "unit": "nM"}, {"measurement": "IC50", "setting": "Recombinant ROCK1", "result": 31, "unit": "nM"}]}
{"smiles": "COc1cncc(C(CN2CCN(C)CC2)C(=O)Nc2cccc3c(-c4cn[nH]c4)c[nH]c23)c1", "note": "(single isomer, unassigned) [Example 110, N-(3-(1H-pyrazol-4-yl)-1H-indol-7-yl)-2-(5-methoxypyridin-3-yl)-3-(4-methylpiperazin-1-yl)propanamide]", "values": [{"measurement": "IC50", "setting": "Recombinant ROCK2", "result": 3.3, "unit": "nM"}, {"measurement": "IC50", "setting": "Recombinant ROCK1", "result": 6.6, "unit": "nM"}]}
